Reference: publication PMC9369610, “Pro-Apoptotic and Pro-Autophagic Properties of Cardenolides from Aerial Parts of Pergularia tomentosa” (Molecules, 2022)

Legend:
[1] = test system: caspase-3 in HepG2 cells; test: Caspase-3 colorimetric activity assay; assay type: cell-based, human; settings: HepG2, 1 μM, 24 h
Method: To evaluate apoptosis, a caspase-3 colorimetric assay was performed. Briefly, HepG2 cell lines were seeded in plates of 60 mm diameter at a density of 3.5 × 10^4/cm^2 and, after 24 h, treated with P. tomentosa compounds (1 μM each) for 24 h. Then, cells were harvested in phosphate-buffered saline, collected by centrifugation and lysed in a buffer containing 50 mM HEPES, 0.1% CHAPS, 10 mM dithiothreitol, 100 mM NaCl, 1 mM EDTA and 10% sucrose. Proteins (30 μg) were incubated for 2 h at 37 °C in a reaction mixture containing the caspase-3 substrate (acetyl-Asp-Glu-Val-Asp, labelled with p-nitroanilide) (Sigma-aldrich, Milan, Italy) at a concentration of 0.2 mM. Finally, the release of free p-nitroanilide was monitored spectrophotometrically at 405 nm. Enzyme activity was expressed as percentage of absorption of treated cells versus vehicle-treated cells.

[2] = test system: Caco-2 cells; test: MTT cell viability assay, IC50 in Caco-2 cells; assay type: cell-based; settings: Homo sapiens, 24 h, SE less than 10% of value
Method: (§1) The human liver hepatocellular carcinoma cell line, HepG2, and the human adenocarcinoma of colon cell line, Caco-2, were cultured in Eagle’s Minimum Essential medium supplemented with 1% (v/v) non-essential amino acids, 0.2 mM L-glutamine, 50 units/mL penicillin, 50 μg/mL streptomycin and 10% (v/v) or 20% (v/v) fetal bovine serum (Sigma Aldrich, Milan, Italy) for HepG2 or Caco-2, respectively. The human embryonal lung fibroblast cell line, MRC5, was cultured in Dulbecco’s Modified Eagle medium (Sigma Aldrich, Milan, Italy) supplemented with 10% (v/v) fetal bovine serum, 0.2 mM L-glutamine, 50 units/mL penicillin and 50 μg/mL streptomycin. HUVEC cells were cultured in endothelial growth medium-2, supplemented with fetal bovine serum (2%), VEGF (0.1%), rH FGF-B (0.4%), rH EGF (0.1%), GA-1000 (0.1%), hydrocortisone (0.04%), R3-IGF-1 (0.1%), heparin (0.1%) and ascorbic acid (0.1%). Cells were maintained at 37 °C in a 5% CO2, 95% air-humidified atmosphere and passaged twice a week. Cell lines were obtained from Interlab Cell Line Collection, Istituto Nazionale per la Ricerca sul Cancro, Genoa, Italy. HUVEC were obtained from Lonza (Milan, Italy).
(§2) An MTT assay was used to analyse cell viability. Cells were seeded in 96 wells at the density of 2 × 10^4/cm^2 and, after 24 h, they were treated with P. tomentosa compounds or with the vehicle (DMSO). After a further 24 h of treatment, 0.5 mg/mL of MTT was added to the cell medium and incubated for 1.5 h at 37 °C. The resulting formazan crystals were dissolved in 100 μL of DMSO and absorbances were measured at 595 nm and 655 nm. The background signals at 655 nm were subtracted from 595 nm signals, and data were expressed as a percent of cell viability. The concentration of each compound that is required for 50% inhibition in vitro (IC50) was calculated as described in Husseini et al.. IC50 values were obtained for Caco-2, HepG2 and MRC5 cells by performing MTT assays with concentrations ranging from 0.01 μg/mL to 5 μg/mL.

[3] = test system: HepG2 cells; test: MTT cell viability assay, IC50 in HepG2 cells; assay type: cell-based; settings: Homo sapiens, 24 h, SE less than 10% of value
Method: as §1, §2

[4] = test system: HepG2 cells; test: Transwell migration assay; assay type: cell-based, human; settings: HepG2, 1 μM, 18 h
Method: Transwell filters (coated with collagen) in serum-free media containing 0.1% of BSA, with a PET membrane with 8 μm pores (BD Biosciences, Milan, Italy), were rehydrated for 2 h at 37 °C. HepG2 were seeded in the upper chambers at a density of 75 × 10^3 cells in MEM with 0.1% BSA and treated with or without 1 µM of Pergularia compounds. MEM−0.1%BSA, supplemented with 10% FBS, was added to the lower chamber as chemoattractant. Control wells without 10% FBS were included to assess random migration. After incubation at 37 °C in 5% CO2 for 18 h, the migrated cells were fixed with 4% paraformaldehyde for 5 min, permeabilised with methanol for 20 min and stained with crystal violet 0.5% for 15 min at room temperature. The cells on the lower side of the filter were allowed to dry before counting. Eight separate bright-field images were randomly acquired of each filter using an Olympus CKX41 Image Analyzer. The cells in each image were counted and analysed compared to control-transfected cells.

[5] = test system: HepG2 cells; test: BrdU incorporation (proliferation) assay; assay type: cell-based, human; settings: HepG2, 1 μM, 24 h
Method: Cell proliferation was analysed by a BrdU (Roche Diagnostics SpA, Monza, Italy) incorporation assay, as previously described. Briefly, HepG2 cells, seeded at adensity of 3 × 10^3/cm^2 on round glass cover slips, were treated for 24 h with P. tomentosa compounds at 1 μM. Then, BrdU was added to cell medium (final concentration, 100 μM) for 1 h. Cells were fixed (in 3% paraformaldehyde, 10 min), permeabilised (in 0.2% Triton X-100, 5 min) and treated with HCl 1.5 N (5 min). Finally, cover slips were incubated with a monoclonal antibody against BrdU (Sigma-Aldrich, Milan, Italy), 1:100, and with a TRITC-conjugated secondary antibody, 1:100. After staining with Hoechst, cover slips were mounted with Mowiol (Sigma, Milan, Italy). […] Images were acquired with Axiocam MRc5 and processed with ImageJ Launcher. The number of cells into S-phase was expressed as the ratio between the number of cells incorporating BrdU and the total number of cells.

[6] = test system: HepG2 cells; test: Scratch-wound-healing assay; assay type: cell-based, human; settings: HepG2, 1 μM, 24, 48 and 72 h
Method: Cells were seeded at a density of 5 × 10^4 cells/well in 24-well plates and allowed to grow for 72 h, reaching confluence. Mitomycin C (10 μg/mL) was added to inhibit proliferation, and then a sterile 2–10 μL pipette tip was used to perform a vertical scratch in the monolayer of each well. Detached cells were removed by washing with phosphate-buffered saline. Then, 300 μL of fresh medium containing P. tomentosa compounds (1 μM) or vehicle was added to each well and incubated for 72 h. Images of migrating cells were taken at 0, 24, 48 and 72 h, by using an Olympus CKX41 fluorescent microscope (Olympus Italia srl, Segrate, Italy) and elaborated by the ImageJ software. For each scratch, wound width was calculated as the average distance between the edges in four different sites. Then, reductions in wound wights at 24, 48 and 72 h were expressed as % of the width at time zero.

[7] = test system: HepG2 cells; test: TUNEL assay; assay type: cell-based, human; settings: HepG2, 1 μM, 24 h
Method: Microscopic evaluation of apoptosis was performed by a TUNEL assay, using a commercial kit (Fragment End Labelling (FragEL™), […]) DNA Fragmentation Detection Kit, Sigma-Aldrich, Milan, Italy) according to the manufacturer-provided protocol, with some modifications. Briefly, cells were seeded on glass cover slips placed in 24-well plates at a density of 3.5 × 10^3/cm^2 and, after 48 h, they were treated with 1 μΜ of each compound for a further 24 h. Cells were fixed in 3% paraformaldehyde for 10 min, permeabilised in 0.2% Triton X-100 for 5 min and treated with HCl 1.5 N for 8 min. Finally, cover slips were equilibrated in equilibration buffer (10 min) and incubated with label mix containing the TdT enzyme for 1 h at 37 °C, then mounted with mounting media. Microscope observations were performed by the AxioSkop 40 fluorescent microscope. Images were acquired with Axiocam MRc5 (Carl Zeiss MicroImaging, Inc., Jena, Germany).

[8] = test system: HepG2, Caco-2, MRC5 and HUVEC cells; test: MTT assay, comparison of cytotoxic effects at 1 μM on four cell types; assay type: cell-based, human; settings: 24 h, Caco-2, HepG2, MRC5, HUVEC
Text: We focused attention on 12β,6′-dihydroxycalotropin (1), 16α-hydroxycalotropin (2), 12β-hydroxycalactin (3), calotropin (4), and calactin (5), among those described by Hosseini et al., and tested their cytotoxic activity by a 3-(4,5-dime-thylthiazol-2-yl)-2,5-diphenylte-tetrazolium bromide (MTT) assay on two cancer cell lines (HepG2 and Caco-2), not previously employed, on an immortalised nontumoral cell line (MRC5) and normal primary cells (HUVEC).
Figure 2 Comparison of cytotoxic effects of P. tomentosa compounds on cancer cell lines (Caco-2 and HepG2), on an immortalised cell line (MRC5) and normal cells (HUVEC). Cells were treated for 24 h with 1 μM of each compound. Residual viability was measured by the MTT assay. Values are the means ± standard error (SE) of three independent experiments performed in triplicate. Statistical analysis was performed using the Student’s t-test. * p < 0.05 and ** p < 0.01 vs. cells treated with the vehicle (DMSO).
as §1, §2

[9] = test system: MRC5 cells; test: MTT cell viability assay, IC50 in MRC5 cells; assay type: cell-based; settings: Homo sapiens, 24 h, SE less than 10% of value
Method: as §1, §2

For C[C@@H]1C[C@@H](O)[C@]2(O)O[C@@H]3C[C@@]4(C=O)C(CCC5C4C[C@@H](O)[C@]4(C)C(C6=CC(=O)OC6)CC[C@]54O)C[C@H]3O[C@@H]2O1 (stereo partly drawn) [Compound 3, 12β-hydroxycalactin], the caspase-3 activity [1] was “did not seem to affect enzyme activity”, the IC50 [2] was 4.51 µM and the IC50 [3] was 6.29 µM. For the same compound, the “effect on transwell migration” value [4] was “reduce migration”, the “effect on BrdU incorporation / cell cycle progression” value [5] was “slightly (but not significantly) reduced BrdU incorporation” and the “effect on wound closure” value [6] was “had an effect at 48 h only”. The “apoptotic nuclei (TUNEL)” value [7] was “undetectable”, the “relative cytotoxicity (residual viability, MTT)” value [8] was “less cytotoxic” and the IC50 [9] was 5.98 µM.
